The values that follow come from patent publication US20170226133A1, “Gold (I)-Phosphine Compounds as Anti-Bacterial Agents” (Auspherix Limited, priority 2014, published 2017).

Data set [1] relates to human hepatocyte cell line (HepG2). Nature of the data set: HepG2 cell inhibition assay (CCK-8 cell viability). It is filed as cell-based. As to conditions: 50% growth inhibition, 24 hours. The method, then:
Cell counting kit-8 (Sigma, CCK-8) assays were performed to assess the effect of compounds on cell viability. The assay is based on the reduction of a water-soluble tetrazolium salt (WST-8) by cellular dehydrogenases to a formazan dye which can be detected spectroscopically. 96-well plates were seeded with the human hepatocyte cell line (HepG2) at approximately 8×10^3 cells per well in Minimum Essential Medium Eagle (EMEM) with Earle's salts and sodium bicarbonate supplemented with 10% heat-inactivated foetal bovine serum 2 mM glutamine and 1% non-essential amino acids (NEAA). The following day serial dilutions of compounds (dissolved and diluted in DMSO) were added to the cells in duplicates. Control included an ‘untreated’ control where cells were grown in the presence of 1% DMSO and a medium only control (plus 1% DMSO). After 24 hours CCK-8 reagent (10 μl) was added to each well and cell viability was assessed by measuring the absorbance at a wavelength of 450 nm after 2-3 h hours. Only living cells can reduce the tetrazolium salts into coloured formazan products. Results were expressed as 50% growth inhibition (TD50) values compared to ‘untreated’ control. The therapeutic index was calculated as the ratio of the dose that produces growth inhibition in 50% of HepG2 cells divided by the dose where 50% of S. aureus or E. coli growth is inhibited.

The test system of data set [2] is chinese hamster ovary cells (CHO). Nature of the data set: CHO toxicity assay (CCK-8 cell viability). It is filed as cell-based. As to conditions: 50% growth inhibition, 24 hours. The method, then: Cell counting kit-8 (Sigma, CCK-8) assays were performed to assess the effect of compounds on cell viability. The assay is based on the reduction of a water-soluble tetrazolium salt (WST-8) by cellular dehydrogenases to a formazan dye which can be detected spectroscopically. 96-well plates were seeded with chinese hamster ovary cells (CHO) cells at 7×10^3 cells per well in Dulbecco's modified Eagle's medium nutrient mixture F-12 Ham (containing 15 mM HEPES, NaHCO3, pyridoxine and L-glutamine) supplemented with 10% fetal bovine serum (FBS). The following day serial dilutions of compounds (dissolved and diluted in DMSO) were added to the cells in duplicates. Control included an ‘untreated’ control where cells were grown in the presence of 1% DMSO and a medium only control (plus 1% DMSO). After 24 hours CCK-8 reagent (10 μl) was added to each well and cell viability was assessed by measuring the absorbance at a wavelength of 450 nm after 2.5-3 hours. Only living cells can reduce the tetrazolium salts into coloured formazan products. Results were expressed as 50% growth inhibition (TD50) values compared to ‘untreated’ control.
The therapeutic index was calculated as the ratio of the dose that produces growth inhibition in 50% of CHO cells divided by the dose where 50% of S. aureus growth is inhibited.

The subject of data set [3] is S. aureus NCTC 8325 biofilm. As to the kind of experiment: Preformed S. aureus biofilm assay (crystal violet). It is filed as cell-based, Staphylococcus aureus. As to conditions: S. aureus NCTC 8325, 24 hours preformed biofilm, 24 hours exposure. On the procedure:
The effect of a test compound on the formation of a S. aureus biofilm may be assessed using a biofilm prevention assay as described by Merritt et al. Current Protocols in Microbiology, 2011, 1B.1.1-1B1.18 with slight modifications. Briefly, S. aureus NCTC 8325, MRSA (RPAH18) and MRSA (MW2) are grown overnight in Tryptic soy broth (TSB) and diluted to between 1/50 and 1/100 before 150 μL is added to the wells of a flat bottomed 96-well plate. Three microliters of auranofin at the appropriate dilution in DMSO are added to the wells in duplicate. Controls included a serial dilution of lincomycin in ethanol (to assess plate to plate variation), a positive control with bacteria alone in TSB with 2% DMSO and a negative (no bacteria) control with 150 μL TSB containing 2% DMSO. Plates are sealed with AeraSeal™ and incubated at 37° C. for 24 hours. The plates are then washed three times with PBS, dried at 60° C. for 1 hour and stained with crystal violet for 1 hour. The plates are again washed three times with water, dried and scanned prior to the addition of 33% acetic acid to re-solubilize the crystal violet stain bound to the adherent cells. Absorbance is then measured at 595 nm and expressed as a percentage of the bacteria only control.
The effect of a test compound on preformed S. aureus biofilms can also be assessed. Briefly S. aureus NCTC 8325 is plated in 96-well plates as described in above and incubated 37° C. for 24 hours. Biofilms are then washed 3 times with TSB and 150 μL of fresh TSB and 3 μL of auranofin at the appropriate dilution in DMSO was added to the wells in duplicate. Plates are again sealed with AeraSeal™ and reincubated 37° C. for 24 hours. Biofilm is then detected as described above.

A further data set has as its system G. mellonella larvae. Nature of the data set: Galleria mellonella model, toxicity of compound alone. It is filed as in vivo. As to conditions: uninfected larvae. The method, then: (§1) G. mellonella larvae at 5th or 6th instar stage were purchased from a commercial supplier and used within 3 days. Prior to infection larvae were kept at room temperature. Larvae were infected with bacteria (various Gram positive and negative bacteria, including S. aureus, K. pneumoniae, E. coli and P. aeruginosa) using a sterile Hamilton syringe. Bacteria cultures were grown overnight, washed ×3 in PBS and resuspended in PBS. Larvae were wiped with 70% ethanol and 10 μl of bacteria solution (to cause 80% death within 3-4 days) was injected into the bottom right proleg of the larvae. Larvae injected with 10 μl of PBS were used as negative controls. Larvae were then placed in petri dishes (1 dish per condition) containing filter paper at the bottom of the dish at 37° C. After various time points post infection (1-6 h), larvae were taken from the incubator wiped again with 70% ethanol and injected with 10 μl of various concentrations of compound, dissolved in either 5% dimethyl sulfoxide, 5% ethanol or 5% 1-methyl-2-pyrrolidinone into a proleg on the left hand-side. Control larvae received 10 μl of 5% solvent. Ten larvae were injected for each condition. To assess the toxicity of the compound, larvae were injected with various concentrations of compound alone. Larvae were returned to a 37° C. incubator and checked daily. Larvae were considered dead when no movement occurred when touched with a blunt pair of forceps. […] Numbers of dead larvae were recorded each day.
Survival Proportions Following Dosing with 10 μl of Compound 8 Solutions of Varying Strengths

Data set [4] has as its system S. aureus infection of G. mellonella larvae. Nature of the data set: Galleria mellonella model, efficacy after S. aureus infection. It is filed as in vivo. As to conditions: S. aureus infected larvae. The method, then: as §1, with “daily.” for “daily. Larvae were considered dead when no movement occurred when touched with a blunt pair of forceps.”, “day. […]” for “day.”

Consider `CN1CCC([S][Au]=[P](C)(C)C)CC1` [Compound 13], for which the “HepG2 cell TD50” value in data set [1] is 15 µg/mL.
On to `C[P](C)(C)=[Au][S]c1nc2ncccc2o1` [Compound 3], for which the “CHO cell TD50” value in data set [2] is 5.0 µg/mL. Further, in data set [1], the “HepG2 cell TD50” value turned out to be 9 µg/mL. Also, in data set [3], the “effect on preformed S. aureus biofilm” value is recorded as “disrupted the biofilm”.
For the molecule `C[P](C)(C)=[Au][S]c1ccccn1` [Compound 11], the “HepG2 cell TD50” value in data set [1] was 4.5 µg/mL. The “effect on preformed S. aureus biofilm” value in data set [3] is “disrupted the biofilm”.
Turning to `C[P](C)(C)=[Au][S]C1CCOCC1` [Compound 16], the “HepG2 cell TD50” value in data set [1] stood at 4.5 µg/mL.
`C[P](C)(C)=[Au][S]c1nc2ccccc2[nH]1` [Compound 1]: the “CHO cell TD50” value in data set [2] stood at 3.2 µg/mL. Moreover, in data set [1], the “HepG2 cell TD50” value stood at 4 µg/mL.
As for `CCOC(=O)[C@H](C[Se][Au]=[P](C)(C)C)NC(C)=O` [Compound 18], in data set [1], the “HepG2 cell TD50” value is above 50 µg/mL.
As for `C[P](C)(C)=[Au][S][C@H]1CC[C@H](O)CC1` [Compound 15], in data set [1], the “HepG2 cell TD50” value is 4.5 µg/mL. In addition, the “effect on preformed S. aureus biofilm” value in data set [3] is recorded as “disrupted the biofilm”.
Take `CC(=O)N[C@@H](C[S][Au]=[P](C)(C)C)C(N)=O` [Compound 4]: the “HepG2 cell TD50” value in data set [1] stood at 22 µg/mL. The “effect on preformed S. aureus biofilm” value in data set [3] is on record as “disrupted the biofilm”.
In the same order, the values of `C[P](C)(C)=[Au][S]c1nc2ncccc2s1` [Compound 14] are 7 µg/mL and “disrupted the biofilm”.
Regarding `C[P](C)(C)=[Au][S]c1nc2cccnc2[nH]1` [Compound 7], the “HepG2 cell TD50” value in data set [1] came to 12.5 µg/mL. The “effect on preformed S. aureus biofilm” value in data set [3] is “disrupted the biofilm”.
In the same order, the values of `C[P](C)(C)=[Au][S]c1ccccc1` [Compound 10] are 2 µg/mL and “disrupted the biofilm”.
In the same order, the values of `C[P](C)(C)=[Au][S]c1ncccn1` [Compound 12] are 4.5 µg/mL and “disrupted the biofilm”.
For the molecule `CCOC(=O)[C@H](C[S][Au]=[P](C)(C)C)NC(C)=O` [Compound 8], the “HepG2 cell TD50” value in data set [1] turned out to be 9.5 µg/mL. For the same molecule, the Survival proportions turned out to be 100 in the data set with G. mellonella larvae (3.75 mg/kg, Day 1); 100 in the data set with G. mellonella larvae (3.75 mg/kg, Day 2); 100 with G. mellonella larvae (3.75 mg/kg, Day 3); 100 in the data set on G. mellonella larvae (3.75 mg/kg, Day 4); 100 in the data set with G. mellonella larvae (7.5 mg/kg, Day 1); 100 with G. mellonella larvae (7.5 mg/kg, Day 2). Moreover, the Survival proportions is reported as 100 in the data set with G. mellonella larvae (7.5 mg/kg, Day 3); 100 in the data set on G. mellonella larvae (7.5 mg/kg, Day 4); 100 in the data set on G. mellonella larvae (15 mg/kg, Day 1); 100 in the data set with G. mellonella larvae (15 mg/kg, Day 2); 100 in the data set with G. mellonella larvae (15 mg/kg, Day 3); 100 in the data set with G. mellonella larvae (15 mg/kg, Day 4). Moreover, the Survival proportions in the data set with G. mellonella larvae (30 mg/kg, Day 1) was found to be 100; with G. mellonella larvae (30 mg/kg, Day 2), 90; with G. mellonella larvae (30 mg/kg, Day 3) it was 90; in the data set on G. mellonella larvae (30 mg/kg, Day 4) it was 90; in the data set on G. mellonella larvae (60 mg/kg, Day 1), 100; in the data set with G. mellonella larvae (60 mg/kg, Day 2), 80. Also, the Survival proportions in the data set with G. mellonella larvae (60 mg/kg, Day 3) is given as 60; in the data set with G. mellonella larvae (60 mg/kg, Day 4) it was 50. Further, the mean survival rates result in data set [4] (2 mg/kg (p=0.02)) and in data set [4] (4 mg/kg (p=0.04)) was “significantly increased” in each case. Besides, in data set [3], the “effect on preformed S. aureus biofilm” value was “disrupted the biofilm”.
With `COC(=O)[C@H](C[S][Au]=[P](C)(C)C)NC(C)=O` [Compound 2], the “CHO cell TD50” value in data set [2] was 6.4 µg/mL. In data set [1], the “HepG2 cell TD50” value is 11 µg/mL. Further, the “effect on preformed S. aureus biofilm” value in data set [3] is “disrupted the biofilm”.
In the case of `C[P](C)(C)=[Au][S]c1cccnc1` [Compound 19], the “HepG2 cell TD50” value in data set [1] turned out to be 3 µg/mL.
